From patent US9796711B2, “Substituted pyrazolo[3,4-b]pyridin-6-carboxylic acids and method of use” (AbbVie S.àr.l., priority 2015, dated 2017)

Tests used:
[1] = molecular target: T1, ΔF508-CFTR (Homo sapiens, UniProt P13569, DEL508-508); experiment: CFTR cell surface levels using HRP-tagged ΔF508-CFTR expressing CFBE cells, intrinsic corrector capacity; format: cell-based
T1 construct: host or cells: CFBE41o-, doxycycline-inducible
Summary of the method: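 Here the cells express ΔF508-CFTR with horseradish peroxidase inserted in extracellular loop 4, so only rescued channel at the surface gives luminescent signal. Compounds act on their own, 20 h at the reduced temperature of 33 °C; values are percent activity relative to DMSO and a 3 μM corrector.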

[2] = molecular target: T1, ΔF508-CFTR; experiment: CFTR cell surface levels using HRP-tagged ΔF508-CFTR expressing CFBE cells, in the presence of a co-corrector; format: cell-based
Summary of the method: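 Cells were seeded with 0.5 μg/mL doxycycline and held 68 h at 37 °C. Test compounds plus 3 μM co-corrector (final 0.1% DMSO) were then added for 20 h at 33 °C. Washed cells received HRP substrate, and luminescence was normalized between DMSO and 3 μM co-corrector controls.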

[3] = HRP-tagged ΔF508-CFTR expressing CFBE cells, intrinsic corrector capacity (no co-corrector), 33° C., 20 hours
[4] = HRP-tagged ΔF508-CFTR expressing CFBE cells, intrinsic corrector capacity (no co-corrector), 33° C., 20 hours, read-out: EC50
[5] = HRP-tagged ΔF508-CFTR expressing CFBE cells, in the presence of 3 μM co-corrector
[6] = HRP-tagged ΔF508-CFTR expressing CFBE cells, in the presence of 3 μM co-corrector, read-out: EC50

T1 sequence (P13569 with tags, fused parts or gaps DEL508-508): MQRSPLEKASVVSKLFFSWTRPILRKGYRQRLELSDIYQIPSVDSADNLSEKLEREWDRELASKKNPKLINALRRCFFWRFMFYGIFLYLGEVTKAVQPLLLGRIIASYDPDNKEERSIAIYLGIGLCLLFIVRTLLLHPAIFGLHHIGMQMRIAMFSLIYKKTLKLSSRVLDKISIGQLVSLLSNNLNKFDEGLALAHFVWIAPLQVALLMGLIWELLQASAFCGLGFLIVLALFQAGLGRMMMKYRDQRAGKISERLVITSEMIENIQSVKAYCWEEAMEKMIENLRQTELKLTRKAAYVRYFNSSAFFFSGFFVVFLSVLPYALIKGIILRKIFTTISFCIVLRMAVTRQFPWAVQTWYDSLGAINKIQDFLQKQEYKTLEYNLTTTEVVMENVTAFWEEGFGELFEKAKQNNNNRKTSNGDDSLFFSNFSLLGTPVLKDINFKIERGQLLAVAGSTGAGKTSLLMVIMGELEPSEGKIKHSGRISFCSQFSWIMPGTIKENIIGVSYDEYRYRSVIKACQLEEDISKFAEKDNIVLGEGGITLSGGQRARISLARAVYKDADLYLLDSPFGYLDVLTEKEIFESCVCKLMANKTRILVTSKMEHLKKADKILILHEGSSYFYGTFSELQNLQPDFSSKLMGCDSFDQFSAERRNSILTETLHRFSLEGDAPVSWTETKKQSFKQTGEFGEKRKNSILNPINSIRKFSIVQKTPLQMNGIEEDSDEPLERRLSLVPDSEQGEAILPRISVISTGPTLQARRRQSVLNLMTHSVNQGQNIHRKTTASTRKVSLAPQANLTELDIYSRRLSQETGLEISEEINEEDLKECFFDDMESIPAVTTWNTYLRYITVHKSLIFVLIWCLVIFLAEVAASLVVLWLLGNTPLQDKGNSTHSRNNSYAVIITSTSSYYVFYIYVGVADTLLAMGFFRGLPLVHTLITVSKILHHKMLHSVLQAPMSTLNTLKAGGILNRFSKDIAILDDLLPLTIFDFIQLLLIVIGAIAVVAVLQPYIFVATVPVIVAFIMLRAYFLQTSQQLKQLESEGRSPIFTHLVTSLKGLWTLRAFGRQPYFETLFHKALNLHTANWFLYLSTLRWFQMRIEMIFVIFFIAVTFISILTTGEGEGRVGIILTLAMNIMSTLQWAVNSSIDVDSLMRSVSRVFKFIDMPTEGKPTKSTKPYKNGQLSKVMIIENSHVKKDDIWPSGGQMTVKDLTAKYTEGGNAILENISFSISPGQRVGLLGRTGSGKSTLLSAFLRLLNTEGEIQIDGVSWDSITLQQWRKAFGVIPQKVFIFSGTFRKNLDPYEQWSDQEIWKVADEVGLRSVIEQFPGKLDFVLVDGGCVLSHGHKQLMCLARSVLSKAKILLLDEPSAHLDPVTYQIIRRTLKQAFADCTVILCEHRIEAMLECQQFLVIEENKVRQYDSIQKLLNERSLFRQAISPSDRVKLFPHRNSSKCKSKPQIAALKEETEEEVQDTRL

CC(C)c1nn(-c2ccc(F)cc2)c2nc(C(=O)O)cc(N3CCN(CC4CCCO4)CC3)c12 (stereo not shown) [compound 792, 1-(4-fluorophenyl)-4-{4-[(oxolan-2-yl)methyl]piperazin-1-yl}-3-(propan-2-yl)-1H-pyrazolo[3,4-b]pyridine-6-carboxylic acid]
% Activation [1, 3]: 170.1%
EC50 [1, 4]: 1430 nM
% Activation [2, 5]: 321%
EC50 [2, 6]: 710 nM

COCC(C)N1CCN(c2cc(C(=O)O)nc3c2c(C(C)C)nn3-c2ccc(F)cc2)CC1 (stereo not shown) [compound 793, 1-(4-fluorophenyl)-4-[4-(1-methoxypropan-2-yl)piperazin-1-yl]-3-(propan-2-yl)-1H-pyrazolo[3,4-b]pyridine-6-carboxylic acid]
% Activation [1, 3]: 157.7%
EC50 [1, 4]: 1670 nM
% Activation [2, 5]: 363.5%
EC50 [2, 6]: 1670 nM

CC(C)c1nn(-c2ccc(F)cc2)c2nc(C(=O)O)cc(N3CC(N4CCCC4)C3)c12 [compound 794, 1-(4-fluorophenyl)-3-(propan-2-yl)-4-[3-(pyrrolidin-1-yl)azetidin-1-yl]-1H-pyrazolo[3,4-b]pyridine-6-carboxylic acid]
% Activation [1, 3]: 58.82%
EC50 [1, 4]: 1670 nM
% Activation [2, 5]: 168.7%
EC50 [2, 6]: 788 nM

CC(C)c1nn(-c2ccc(F)cc2)c2nc(C(=O)O)cc(N3CCCN(C(C)C)CC3)c12 [compound 795, 1-(4-fluorophenyl)-3-(propan-2-yl)-4-[4-(propan-2-yl)-1,4-diazepan-1-yl]-1H-pyrazolo[3,4-b]pyridine-6-carboxylic acid]
% Activation [1, 3]: 47.22%
EC50 [1, 4]: 1670 nM
% Activation [2, 5]: 175.3%
EC50 [2, 6]: 1670 nM

CC(C)CN1C[C@@H]2CN(c3cc(C(=O)O)nc4c3c(C(C)C)nn4-c3ccc(F)cc3)C[C@@H]2C1 [compound 796, 1-(4-fluorophenyl)-4-[(3aR,6aS)-5-(2-methylpropyl)hexahydropyrrolo[3,4-c]pyrrol-2(1H)-yl]-3-(propan-2-yl)-1H-pyrazolo[3,4-b]pyridine-6-carboxylic acid]
% Activation [1, 3]: 169.7%
EC50 [1, 4]: 1670 nM
% Activation [2, 5]: 358%
EC50 [2, 6]: 1670 nM

CCN1CCCN(c2cc(C(=O)O)nc3c2c(C(C)C)nn3-c2ccc(F)cc2)CC1 [compound 797, 4-(4-ethyl-1,4-diazepan-1-yl)-1-(4-fluorophenyl)-3-(propan-2-yl)-1H-pyrazolo[3,4-b]pyridine-6-carboxylic acid]
% Activation [1, 3]: 31.52%
EC50 [1, 4]: 5000 nM
% Activation [2, 5]: 178.6%
EC50 [2, 6]: 1670 nM

CC(C)c1nn(-c2ccc(F)cc2)c2nc(C(=O)O)cc(N3CCC(O)(CN(C)C(C)C)CC3)c12 [compound 798, 1-(4-fluorophenyl)-4-(4-hydroxy-4-{[methyl(propan-2-yl)amino]methyl}piperidin-1-yl)-3-(propan-2-yl)-1H-pyrazolo[3,4-b]pyridine-6-carboxylic acid]
% Activation [1, 3]: 58.3%
EC50 [1, 4]: 1670 nM
% Activation [2, 5]: 186.5%
EC50 [2, 6]: 864 nM

CC(C)c1nn(-c2ccc(F)cc2)c2nc(C(=O)O)cc(N3CCC(N(C)C(C)C)CC3)c12 [compound 799, 1-(4-fluorophenyl)-4-{4-[methyl(propan-2-yl)amino]piperidin-1-yl}-3-(propan-2-yl)-1H-pyrazolo[3,4-b]pyridine-6-carboxylic acid]
% Activation [1, 3]: 114%
EC50 [1, 4]: 1670 nM
% Activation [2, 5]: 306.6%
EC50 [2, 6]: 1670 nM

CCN(CC)CCN1CCN(c2cc(C(=O)O)nc3c2c(C(C)C)nn3-c2ccc(F)cc2)CC1 [compound 800, 4-[4-[2-(diethylamino)ethyl]piperazin-1-yl}-1-(4-fluorophenyl)-3-(propan-2-yl)-1H-pyrazolo[3,4-b]pyridine-6-carboxylic acid]
% Activation [1, 3]: 45.22%
EC50 [1, 4]: 1670 nM
% Activation [2, 5]: 214.8%
EC50 [2, 6]: 1490 nM

CC(C)c1nn(-c2ccc(F)cc2)c2nc(C(=O)O)cc(N3CCN(C4CCN(C)CC4)CC3)c12 [compound 801, 1-(4-fluorophenyl)-4-[4-(1-methylpiperidin-4-yl)piperazin-1-yl]-3-(propan-2-yl)-1H-pyrazolo[3,4-b]pyridine-6-carboxylic acid]
% Activation [1, 3]: 67.99%
EC50 [1, 4]: 1670 nM
% Activation [2, 5]: 253.1%
EC50 [2, 6]: 1670 nM

COC[C@@H]1CCN(CC2CCN(c3cc(C(=O)O)nc4c3c(C3CCC3)nn4-c3ccccc3)CC2)C1 [compound 802, 3-cyclobutyl-4-(4-{[(3R)-3-(methoxymethyl)pyrrolidin-1-yl]methyl}piperidin-1-yl)-1-phenyl-1H-pyrazolo[3,4-b]pyridine-6-carboxylic acid]
% Activation [1, 3]: 218%
EC50 [1, 4]: 462 nM
% Activation [2, 5]: 439.7%
EC50 [2, 6]: 771 nM

CC(C1CCN(c2cc(C(=O)O)nc3c2c(C2CCC2)nn3-c2ccc(F)cc2)CC1)N1CCOCC1 (stereo not shown) [compound 805, 3-cyclobutyl-1-(4-fluorophenyl)-4-{4-[1-(morpholin-4-yl)ethyl]piperidin-1-yl}-1H-pyrazolo[3,4-b]pyridine-6-carboxylic acid]
% Activation [1, 3]: 364%
EC50 [1, 4]: 72.7 nM
% Activation [2, 5]: 671%
EC50 [2, 6]: 47.4 nM

CC(C)c1nn(-c2ccc(F)cc2)c2nc(C(=O)O)cc(N3CCC(CN4CCCC4)CC3)c12 [compound 811, 1-(4-fluorophenyl)-3-(propan-2-yl)-4-{4-[(pyrrolidin-1-yl)methyl]piperidin-1-yl}-1H-pyrazolo[3,4-b]pyridine-6-carboxylic acid]
EC50 [1]: 890 nM
% Activation [1, 3]: 120.4%
EC50 [2]: 1080 nM
% Activation [2, 5]: 408.4%

COCC1CCN(c2cc(C(=O)O)nc3c2c(C2CCC2)nn3-c2ccnc(C3CCOCC3)c2)CC1 [compound 817, 3-cyclobutyl-4-[4-(methoxymethyl)piperidin-1-yl]-1-[2-(oxan-4-yl)pyridin-4-yl]-1H-pyrazolo[3,4-b]pyridine-6-carboxylic acid]
% Activation [1, 3]: 168%
EC50 [1, 4]: 152 nM
% Activation [2, 5]: 384.9%
EC50 [2, 6]: 46.4 nM

O=C(O)c1cc(N2CCC(N3CCOCC3)CC2)c2c(C3CCC3)nn(-c3ccnc(C4CCOCC4)c3)c2n1 [compound 819, 3-cyclobutyl-4-[4-(morpholin-4-yl)piperidin-1-yl]-1-[2-(oxan-4-yl)pyridin-4-yl]-1H-pyrazolo[3,4-b]pyridine-6-carboxylic acid]
% Activation [1, 3]: 174.7%
EC50 [1, 4]: 3330 nM
% Activation [2, 5]: 313.1%
EC50 [2, 6]: 3330 nM

Cc1cccc(-n2nc(C3CCC3)c3c(N4CCC(N5CCOCC5)CC4)cc(C(=O)O)nc32)c1 [compound 820, 3-cyclobutyl-1-(3-methylphenyl)-4-[4-(morpholin-4-yl)piperidin-1-yl]-1H-pyrazolo[3,4-b]pyridine-6-carboxylic acid]
% Activation [1, 3]: 351.3%
EC50 [1, 4]: 285 nM
% Activation [2, 5]: 499.75%
EC50 [2, 6]: 123 nM

COc1cccc(-n2nc(C3CCC3)c3c(N4CCC(N5CCOCC5)CC4)cc(C(=O)O)nc32)c1 [compound 822, 3-cyclobutyl-1-(3-methoxyphenyl)-4-[4-(morpholin-4-yl)piperidin-1-yl]-1H-pyrazolo[3,4-b]pyridine-6-carboxylic acid]
% Activation [1, 3]: 272.3%
EC50 [1, 4]: 301 nM
% Activation [2, 5]: 472.75%
EC50 [2, 6]: 1140 nM

O=C(O)c1cc(N2CCC(N3CCOCC3)CC2)c2c(C3CCC3)nn(-c3ccc(C(F)(F)F)cc3)c2n1 [compound 823, 3-cyclobutyl-4-[4-(morpholin-4-yl)piperidin-1-yl]-1-[4-(trifluoromethyl)phenyl]-1H-pyrazolo[3,4-b]pyridine-6-carboxylic acid]
% Activation [1, 3]: 188.7%
EC50 [1, 4]: 258 nM
% Activation [2, 5]: 375.2%
EC50 [2, 6]: 147 nM

Cc1cc(-n2nc(C3CCC3)c3c(N4CCC(N5CCOCC5)CC4)cc(C(=O)O)nc32)ccc1F [compound 824, 3-cyclobutyl-1-(4-fluoro-3-methylphenyl)-4-[4-(morpholin-4-yl)piperidin-1-yl]-1H-pyrazolo[3,4-b]pyridine-6-carboxylic acid]
% Activation [1, 3]: 338.9%
EC50 [1, 4]: 180 nM
% Activation [2, 5]: 535.65%
EC50 [2, 6]: 277 nM

O=C(O)c1cc(N2CCC(N3CCOCC3)CC2)c2c(C3CCC3)nn(-c3cccc(F)c3)c2n1 [compound 825, 3-cyclobutyl-1-(3-fluorophenyl)-4-[4-(morpholin-4-yl)piperidin-1-yl]-1H-pyrazolo[3,4-b]pyridine-6-carboxylic acid]
% Activation [1, 3]: 289%
EC50 [1, 4]: 207 nM
% Activation [2, 5]: 455.85%
EC50 [2, 6]: 144 nM

O=C(O)c1cc(N2CCC(N3CCOCC3)CC2)c2c(C3CCC3)nn(-c3cccc(C(F)(F)F)c3)c2n1 [compound 826, 3-cyclobutyl-4-[4-(morpholin-4-yl)piperidin-1-yl]-1-[3-(trifluoromethyl)phenyl]-1H-pyrazolo[3,4-b]pyridine-6-carboxylic acid]
% Activation [1, 3]: 314.4%
EC50 [1, 4]: 157 nM
% Activation [2, 5]: 528.15%
EC50 [2, 6]: 102 nM

O=C(O)c1cc(N2CCC(CN3CC(F)C3)CC2)c2c(C3CCC3)nn(-c3ccccc3)c2n1 [compound 827, 3-cyclobutyl-4-{4-[(3-fluoroazetidin-1-yl)methyl]piperidin-1-yl}-1-phenyl-1H-pyrazolo[3,4-b]pyridine-6-carboxylic acid]
% Activation [1, 3]: 265.4%
EC50 [1, 4]: 257 nM
% Activation [2, 5]: 453.25%
EC50 [2, 6]: 93 nM
